Values of other authors, collected in EP4763224A1, “ANTICANCER AGENT CONTAINING NKT CELL LIGAND-CONTAINING LIPOSOME COMPOSITION” (RIKEN, priority 2023, dated 2025).

System: NKT cells
Conditions: for activity relative to α-galactosylceramide: Patent Documents 1 to 5 and Non-Patent Document 10

Structure (SMILES) | activity relative to α-galactosylceramide | artificial activation of NKT cells (Non-Patent Document 9)
CCCCCCCCCCCCCCCCCCCCCCCCCC(=O)N[C@@H](CO[C@H]1O[C@H](COC)[C@H](O)[C@H](O)[C@H]1O)[C@H](O)[C@H](O)CCCCCCCCCCCCCC [RCAI-61] | several tens times higher | 
CCCCCCCCCCCCCCCCCCCCCCCCCC(=O)N[C@@H](CO[C@H]1O[C@H](COC(=O)NO)[C@H](O)[C@H](O)[C@H]1O)[C@H](O)[C@H](O)CCCCCCCCCCCCCC [RCAI-137] | several tens times higher | 
CCCCCCCCCCCCCCCCCCCCCCCCCC(=O)N[C@@H](CO[C@H]1O[C@H](COC(=O)NC)[C@H](O)[C@H](O)[C@H]1O)[C@H](O)[C@H](O)CCCCCCCCCCCCCC [RK-163] | several tens times higher | 
CCCCCCCCCCCCCCCCCCCCCCCCCC(=O)N[C@@H](CO[C@H]1O[C@H](CO)[C@H](O)[C@H](O)[C@H]1O)[C@H](O)[C@H](O)CCCCCCCCCCCCCC [α-Galactosylceramide, reference compound] |  | strongly induce artificial activation of NKT cells
